Common to all, as to format: cell-based, Human
In one experiment the test system is HGC-27. Nature of the experiment: CCK-8 tumor cell proliferation, HGC-27. The settings on record: Homo sapiens; Table 18, FAK inhibitor based; HGC-27; read-out: IC50 inhibiting proliferation of tumor cells, HGC-27. As for the experimental part: (§1) The tumor cells used herein were cultured in a cell culture medium listed in table 4 at 37° C. in an incubator with 5% CO2. Prior to experimentation, all cells used were correctly identified by STR profiling, and tested negative for mycoplasma through routine screenings.
(§2) IC50 values of the compounds of the present disclosure (including the compounds in Tables 1 and 3, and compounds of examples) were measured using the Meilun Cell Counting Kit-8 kit from Dalian Meilun Biotech Co., Ltd. Assay details are as follows: tumor cells were seeded in a 96-well plate at a density listed in Table 5. After 24 h, 100 μL of the inoculated cells were treated with 0.5 μL of the compounds of the present disclosure (including the compounds in Tables 1 and 3, and compounds of examples) at 10 different successively decreasing concentrations (starting at the highest concentration of 10 μM; 5-fold serial dilutions). After the cells were treated with the compounds of the present disclosure for a period of time, the cell viability detection reagent was added to the culture medium for cell viability assessment according to the instructions provided with the CCK-8 kit. […] The growth inhibition of the compounds of the present disclosure on cells was plotted by Prism Graphpad software, and the IC50 values of the compounds of the present disclosure were calculated therefrom.

For another experiment, the system named is CCRF-CEM. Nature of the experiment: CCK-8 tumor cell proliferation, CCRF-CEM. The settings on record: CCRF-CEM, read-out: IC50 inhibiting proliferation of tumor cells, CCRF-CEM. Summed up: (§3)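 Authenticated cells, kept at 37 °C and 5% CO2, were given compound a day after plating; doses spanned 10 levels in 5-fold decrements from 10 μM. IC50 values come from CCK-8 viability readings.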

A further experiment deals with PC-9. As to the kind of experiment: CCK-8 tumor cell proliferation, PC-9. The settings on record: Homo sapiens; Table 18, FAK inhibitor based; PC-9; read-out: IC50 inhibiting proliferation of tumor cells, PC-9.
A further experiment relates to SR. As to the kind of experiment: CCK-8 tumor cell proliferation, SR. The settings on record: Homo sapiens; Table 18, FAK inhibitor based; SR; read-out: IC50 inhibiting proliferation of tumor cells, SR. Summed up:
as §3

The test system of the next experiment is MDA-MB-231. As to the kind of experiment: CCK-8 tumor cell proliferation, MDA-MB-231. The settings on record: Homo sapiens; Table 18, FAK inhibitor based; MDA-MB-231; read-out: IC50 inhibiting proliferation of tumor cells, MDA-MB-231. Summed up:
as §3

For a further experiment, the system named is LNcap. As to the kind of experiment: CCK-8 tumor cell proliferation, LNcap. The settings on record: Table 19, IRAK4 inhibitor based, Lncap, read-out: IC50 inhibiting proliferation of tumor cells, Lncap. Summed up:
as §3

Another experiment has as its system Jurkat. Nature of the experiment: CCK-8 tumor cell proliferation, Jurkat. The settings on record: Table 19, IRAK4 inhibitor based, read-out: IC50 inhibiting proliferation of tumor cells, Jurkat. A digest of the protocol:
as §3

A further experiment concerns SU-DHL-4. As to the kind of experiment: CCK-8 tumor cell proliferation, SU-DHL-4. The settings on record: Table 19, IRAK4 inhibitor based, read-out: IC50 inhibiting proliferation of tumor cells, SU-DHL-4. On the procedure:
as §1, §2

The next experiment has as its system SW620. Nature of the experiment: CCK-8 tumor cell proliferation, SW620. The settings on record: Table 19, IRAK4 inhibitor based, SW620, read-out: IC50 inhibiting proliferation of tumor cells, SW620. Summed up:
as §3

A further experiment concerns CAL-62. Nature of the experiment: CCK-8 tumor cell proliferation, CAL-62. The settings on record: Table 19, IRAK4 inhibitor based, CAL-62, read-out: IC50 inhibiting proliferation of tumor cells, CAL-62. A digest of the protocol: as §3
Another experiment relates to Mino. Nature of the experiment: CCK-8 tumor cell proliferation, Mino. The settings on record: Homo sapiens; Table 19, IRAK4 inhibitor based; Mino; read-out: IC50 inhibiting proliferation of tumor cells, Mino. Summed up: as §3
Another experiment deals with MV-4-11. As to the kind of experiment: CCK-8 tumor cell proliferation, MV-4-11. The settings on record: Homo sapiens, MV4-11; Table 19, IRAK4 inhibitor based; MV-4-11; read-out: IC50 inhibiting proliferation of tumor cells, MV-4-11. As for the experimental part: as §1, §2
The mark [1] stands for this setting: Homo sapiens, Table 19, IRAK4 inhibitor based.

IC50 data for ten molecules are collected here from patent US20260199323A1, “LIGAND COMPOUNDS FOR E3 UBIQUITIN LIGASE, PROTEIN DEGRADERS DEVELOPED ON BASIS OF LIGAND COMPOUNDS, AND USES THEREOF” (GLUETACS THERAPEUTICS (SHANGHAI) CO., LTD., priority 2021, published 2026).

Like-named read-outs stand apart in the source and are kept apart here.

As to `CNC(=O)c1ccccc1Nc1cc(Nc2ccc(N3CCC(N4CCN(Cc5cc(F)c6c(c5)CN(C5CCC(=O)NC5=O)C6=O)CC4)CC3)cc2OC)ncc1C(F)(F)F` (stereo not drawn) [GT-03597, 2-((2-((4-(4-(4-((2-(2,6-dioxopiperidin-3-yl)-7-fluoro-1-oxoisoindolin-5-yl)methyl)piperazin-1-yl)piperidin-1-yl)-2-methoxyphenyl)amino)-5-(trifluoromethyl)pyridin-4-yl)amino)-N-methylbenzamide], the IC50 with HGC-27 is 500 to 1000 nM; in the experiment with CCRF-CEM (Homo sapiens, Table 18, FAK inhibitor based), 100 to 500 nM; in the experiment with PC-9, 500 to 1000 nM; with SR, 50 to 100 nM; with MDA-MB-231 it was 500 to 1000 nM.

`CC(C)Nc1cc(-n2ccc3cc(C#N)cnc32)ncc1C(=O)N[C@H]1CC[C@H](C(=O)NCc2ccc3c(c2)CN(C2CCC(=O)NC2=O)C3=O)CC1` (stereo partly drawn) [GT-04077, 6-(5-cyano-1H-pyrrolo[2,3-b]pyridin-1-yl)-N-((1r,4r)-4-(((2-(2,6-dioxopiperidin-3-yl)-1-oxoisoindolin-5-yl)methyl)carbamoyl)cyclohexyl)-4-(isopropylamino)nicotinamide]: the IC50 is 100 to 500 nM in the experiment with LNcap; less than 50 nM with CCRF-CEM (Table 19, IRAK4 inhibitor based); less than 50 nM with Jurkat; 500 to 1000 nM in the experiment with SU-DHL-4; 100 to 500 nM in the experiment on SW620; less than 50 nM in the experiment on CAL-62.

With `O=C1CCC(N2Cc3cc(CN4CCC(n5cc(NC(=O)c6coc(-c7ccnc(NCC8CC8)c7)n6)c(C(F)F)n5)CC4)ccc3C2=O)C(=O)N1` (stereo not drawn) [GT-04153, 2-(2-((cyclopropylmethyl)amino)pyridin-4-yl)-N-(3-(difluoromethyl)-1-(1-((2-(2,6-dioxopiperidin-3-yl)-1-oxoisoindolin-5-yl)methyl)piperidin-4-yl)-1H-pyrazol-4-yl)oxazole-4-carboxamide], the IC50 is less than 50 nM in the experiment on LNcap (Homo sapiens); less than 50 nM in the experiment on CCRF-CEM (setting [1]); less than 50 nM with Jurkat (Homo sapiens); less than 50 nM with SU-DHL-4 (Homo sapiens); less than 50 nM with SW620 (Homo sapiens, SW-620); less than 50 nM with CAL-62 (Homo sapiens).

Consider `O=C1CCC(N2Cc3cc(CN4CCC(n5cc(NC(=O)c6coc(-c7ccnc(NCC8CC8)c7)n6)c(C(F)F)n5)CC4)c(F)cc3C2=O)C(=O)N1` (stereo not drawn) [GT-04171, 2-(2-((cyclopropylmethyl)amino)pyridin-4-yl)-N-(3-(difluoromethyl)-1-(1-((2-(2,6-dioxopiperidin-3-yl)-6-fluoro-1-oxoisoindolin-5-yl)methyl)piperidin-4-yl)-1H-pyrazol-4-yl)oxazole-4-carboxamide], for which the IC50 in the experiment with LNcap (Homo sapiens) was less than 50 nM; in the experiment on CCRF-CEM (setting [1]), less than 50 nM; in the experiment with Jurkat (Homo sapiens), less than 50 nM; in the experiment on SU-DHL-4 (Homo sapiens) it was less than 50 nM; in the experiment with SW620 (Homo sapiens, SW-620) it was less than 50 nM; with CAL-62 (Homo sapiens), less than 50 nM.

With `O=C1CCC(N2Cc3cc(CN4CCC(n5cc(NC(=O)c6cnn7ccc(N8CCOCC8)nc67)c(C(F)F)n5)CC4)cc(F)c3C2=O)C(=O)N1` (stereo not drawn) [GT-03812, N-(3-(difluoromethyl)-1-(1-((2-(2,6-dioxopiperidin-3-yl)-7-fluoro-1-oxoisoindolin-5-yl)methyl)piperidin-4-yl)-1H-pyrazol-4-yl)-5-morpholinopyrazolo[1,5-a]pyrimidine-3-carboxamide], the IC50 fell in the range of 100 to 500 nM with Mino; 1000 to 5000 nM in the experiment with SU-DHL-4 (Homo sapiens); 1000 to 5000 nM in the experiment with SW620 (Homo sapiens, SW-620); 100 to 500 nM in the experiment on MV-4-11.

With `O=C1CCC(N2Cc3cc(CN4CCC(n5cc(NC(=O)c6coc(-c7ccnc(NCC8CC8)c7)n6)c(C(F)F)n5)CC4)cc(F)c3C2=O)C(=O)N1` (stereo not drawn) [GT-04172, 2-(2-((cyclopropylmethyl)amino)pyridin-4-yl)-N-(3-(difluoromethyl)-1-(1-((2-(2,6-dioxopiperidin-3-yl)-7-fluoro-1-oxoisoindolin-5-yl)methyl)piperidin-4-yl)-1H-pyrazol-4-yl)oxazole-4-carboxamide], the IC50 is less than 50 nM in the experiment on LNcap (Homo sapiens); less than 50 nM in the experiment on CCRF-CEM (setting [1]); less than 50 nM in the experiment with Jurkat (Homo sapiens); 100 to 500 nM in the experiment on SU-DHL-4 (Homo sapiens); less than 50 nM in the experiment on SW620 (Homo sapiens, SW-620); less than 50 nM in the experiment on CAL-62 (Homo sapiens).

In the case of `O=C1CCC(N2Cc3cc(CN4CCC(n5cc(NC(=O)c6coc(-c7ccnc(NCC(F)(F)F)c7)n6)c(C(F)F)n5)CC4)cc(F)c3C2=O)C(=O)N1` (stereo not drawn) [GT-04099, N-(3-(difluoromethyl)-1-(1-((2-(2,6-dioxopiperidin-3-yl)-7-fluoro-1-oxoisoindolin-5-yl)methyl)piperidin-4-yl)-1H-pyrazol-4-yl)-2-(2-((2,2,2-trifluoroethyl)amino)pyridin-4-yl)oxazole-4-carboxamide], the IC50 is less than 50 nM in the experiment on LNcap (Homo sapiens); less than 50 nM with CCRF-CEM (setting [1]); less than 50 nM with Jurkat (Homo sapiens); 100 to 500 nM in the experiment on SU-DHL-4 (Homo sapiens); less than 50 nM in the experiment on SW620 (Homo sapiens, SW-620); less than 50 nM in the experiment on CAL-62 (Homo sapiens).

As for `O=C1CCC(N2Cc3c(ccc(CN4CCC(n5cc(NC(=O)c6coc(-c7ccnc(NCC8CC8)c7)n6)c(C(F)F)n5)CC4)c3F)C2=O)C(=O)N1` (stereo not drawn) [GT-04154, 2-(2-((cyclopropylmethyl)amino)pyridin-4-yl)-N-(3-(difluoromethyl)-1-(1-((2-(2,6-dioxopiperidin-3-yl)-4-fluoro-1-oxoisoindolin-5-yl)methyl)piperidin-4-yl)-1H-pyrazol-4-yl)oxazole-4-carboxamide], the IC50 was less than 50 nM in the experiment on LNcap (Homo sapiens); less than 50 nM with CCRF-CEM (setting [1]); less than 50 nM in the experiment with Jurkat (Homo sapiens); less than 50 nM in the experiment on SU-DHL-4 (Homo sapiens); less than 50 nM with SW620 (Homo sapiens, SW-620); less than 50 nM in the experiment on CAL-62 (Homo sapiens).

With `O=C1CCC(N2Cc3cc(CN4CCC(n5cc(NC(=O)c6coc(-c7ccnc(NCC(F)(F)F)c7)n6)c(C(F)F)n5)CC4)ccc3C2=O)C(=O)N1` (stereo not drawn) [GT-04120, N-(3-(difluoromethyl)-1-(1-((2-(2,6-dioxopiperidin-3-yl)-1-oxoisoindolin-5-yl)methyl)piperidin-4-yl)-1H-pyrazol-4-yl)-2-(2-((2,2,2-trifluoroethyl)amino)pyridin-4-yl)oxazole-4-carboxamide], the IC50 is less than 50 nM with LNcap (Homo sapiens); less than 50 nM in the experiment on CCRF-CEM (setting [1]); less than 50 nM in the experiment with Jurkat (Homo sapiens); less than 50 nM in the experiment on SU-DHL-4 (Homo sapiens); less than 50 nM with SW620 (Homo sapiens, SW-620); less than 50 nM in the experiment on CAL-62 (Homo sapiens).

`O=C1CCC(N2Cc3c(ccc(CN4CCC(n5cc(NC(=O)c6coc(-c7ccnc(NCC(F)(F)F)c7)n6)c(C(F)F)n5)CC4)c3F)C2=O)C(=O)N1` (stereo not drawn) [GT-04098, N-(3-(difluoromethyl)-1-(1-((2-(2,6-dioxopiperidin-3-yl)-4-fluoro-1-oxoisoindolin-5-yl)methyl)piperidin-4-yl)-1H-pyrazol-4-yl)-2-(2-((2,2,2-trifluoroethyl)amino)pyridin-4-yl)oxazole-4-carboxamide]: the IC50 was less than 50 nM in the experiment with LNcap (Homo sapiens); less than 50 nM in the experiment with CCRF-CEM (setting [1]); less than 50 nM with Jurkat (Homo sapiens); less than 50 nM in the experiment with SU-DHL-4 (Homo sapiens); less than 50 nM in the experiment with SW620 (Homo sapiens, SW-620); less than 50 nM with CAL-62 (Homo sapiens).
